Like-named read-outs stand apart in the source and are kept apart here.
What was measured:
VSVΔ51 in 786-0 tumors [1] = assay type: cell-based, SCID mice
HSV-1 in 786-0 cells = assay type: cell-based, human; conditions: 48 hours
VSVΔ51 in CT26 cells = assay type: cell-based, mouse; conditions: 24 hours
VSVΔ51 in OVCAR8 tumors = tested on: VSVΔ51 in OVCAR8 tumors; parameters: species or system SCID mice; conditions: mouse, in vivo, iv
VSV in 786-0 cells = assay type: cell-based, human; conditions: 24 hours
VSVΔ51 in MC38 cells = assay type: cell-based, mouse; conditions: 48 hours
VSVΔ51 in GM38 cells = assay type: cell-based, human; conditions: 24 hours
VSVΔ51 in MiaPaca tumors [2] = assay type: cell-based, SCID mice
[3] = tested on: human H1N1 Influenza A strain FM/1/47 in MRC5 cells; assay: Influenza A titers in MRC5 cells treated with FGF2, nucleoprotein ELISA; assay type: cell-based; conditions: FGF2 100 ng/ml, serum free media; MOI 0.05 or 0.1; FIG. 21
Description: MRC5 cells were treated with 100 ng/ml FGF2, 100 ng/ml leptin, or mock treated, in serum free media.
48 hours later, cells were infected with the human H1N1 Influenza A strain FM/1/47 at MOI 0.05 or 0.1, as indicated, in the presence of 1 μg/ml TPCK trypsin. 48 h (MOI 0.1) or 72 h (MOI 0.05) later, supernatants from triplicate wells were collected and pooled. Viral titers were obtained by ELISA for Influenza A nucleoprotein. The resulting titers are illustrated in FIG. 21.

VSVΔ51 in 786-0 cells [4] = assay type: cell-based, human; conditions: 24 hours
JX594-GFP in 786-0 cells [5] = assay type: cell-based, human; conditions: 48 hours
Reovirus in 786-0 cells = assay type: cell-based, human; conditions: 48 hours
VSVΔ51 in 786-0 cells [6] = assay type: cell-based, human
VSVΔ51 in OVCAR8 cells = assay type: cell-based, human; conditions: 24 hours
VSVΔ51 in MiaPaca tumors [7] = assay type: in vivo, SCID mice; conditions: 72 hours
VSVΔ51 in 786-0 tumors [8] = tested on: VSVΔ51 in 786-0 tumors; parameters: species or system SCID mice; conditions: mouse, in vivo, iv
MG1 in 786-0 cells = assay type: cell-based, human; conditions: 24 hours
[9] = tested on: Measles virus (Edmonston strain) in WI38 cells; assay: Measles virus titers in WI38 cells treated with FGF2, plaque assay; assay type: cell-based, human; conditions: FGF2 100 ng/ml, serum free media; MOI 0.1; 48 hours; FIG. 22
Description: WI38 cells were treated with 100 ng/ml FGF2, or mock treated, in serum free media.
24 hours later, cells were infected with Measles virus (Edmonston strain) at an MOI 0.1. 48 hours later, supernatants were collected and virus titration was performed by plaque assay in Vero cells. The resulting titers are illustrated in FIG. 22.

VSVΔ51 in WI38 cells = assay type: cell-based, human; conditions: 24 hours
[10] = Enhancement of virus replication, test not described; conditions: no test details given
JX594-GFP in 786-0 cells [11] = assay type: cell-based, human

FGF2: recombinant human FGF2 protein; amino acid sequence shown in SEQ ID NO: 9
ex-vivo virus infection and GFP expression, fluorescent pictures (VSVΔ51 in 786-0 tumors [1]): increased ex-vivo virus infection and transgene protein expression (GFP)
ex vivo virus production (virus titers) (VSVΔ51 in 786-0 tumors [1]; 48 hours): enhancement of ex vivo virus production
virus replication vs untreated cells (HSV-1 in 786-0 cells): enhanced virus replication
total PFU/mL, fold higher than untreated or FGF1-treated cells (VSVΔ51 in CT26 cells): at least 15 fold
VSVΔ51 titers in tumors (VSVΔ51 in OVCAR8 tumors): enhanced virus replication
virus replication vs untreated cells (VSV in 786-0 cells): enhanced virus replication
Virus titre (VSVΔ51 in MC38 cells): 7.73e6 ± 9.8e5 pfu/mL
effect on virus replication (VSVΔ51 in GM38 cells): did not significantly affect virus replication
ex-vivo virus infection and GFP expression, fluorescent pictures (VSVΔ51 in MiaPaca tumors [2]): increased ex-vivo virus infection and transgene protein expression (GFP)
ex vivo virus production (virus titers) (VSVΔ51 in MiaPaca tumors [2]; 48 hours): enhancement of ex vivo virus production
influenza viral replication (viral titers) [3]: Enhanced Viral Replication
virus titers, fold higher compared to control (untreated and FGF1-treated) cells (VSVΔ51 in 786-0 cells [4]): 10 fold
virus replication vs untreated cells (JX594-GFP in 786-0 cells [5]): enhanced virus replication
virus replication vs untreated cells (Reovirus in 786-0 cells): enhanced virus replication
rate of production of VSVΔ51 compared to untreated 786-0 cells (VSVΔ51 in 786-0 cells [6]): increased
FGF2 concentration at which enhanced VSVΔ51 replication is seen (VSVΔ51 in 786-0 cells [6]; 24 hours): ≤ 20 ng/mL
total PFU/mL, fold higher than untreated or FGF1-treated cells (VSVΔ51 in 786-0 cells [6]; 24 hours): at least 15 fold
virus replication vs untreated cells (VSVΔ51 in 786-0 cells [6]; 24 hours): enhanced virus replication
pfu/ml in cell associated supernatants (VSVΔ51 in 786-0 cells [6]; after 6 hours): about 1E2 pfu/ml
plaque forming units/mL in cell associated supernatants (VSVΔ51 in 786-0 cells [6]; after 48 hours): about 5E6 pfu/mL
total PFU/mL, fold higher than untreated or FGF1-treated cells (VSVΔ51 in OVCAR8 cells): at least 15 fold
VSVΔ51 titers in tumors (VSVΔ51 in MiaPaca tumors [7]): enhanced virus replication
VSVΔ51 titers in tumors (VSVΔ51 in 786-0 tumors [8]): enhanced virus replication
virus replication vs untreated cells (MG1 in 786-0 cells): enhanced virus replication
measles viral replication (virus titers) [9]: Enhanced Viral Replication
total PFU/mL, fold higher than untreated or FGF1-treated cells (VSVΔ51 in WI38 cells): at least 15 fold

SEQ ID NO: 14: human recombinant FGF2 protein (Accession: # P09038)
virus replication [10]: enhance virus replication

B1: mFGF2: recombinant murine FGF2 protein; amino acid sequence shown in SEQ ID NO: 11 (protein)
chain: MAASGITSLPALPEDGGAAFPPGHFKDPKRLYCKNGGFFLRIHPDGRVDGVREKSDPHVKLQLQAEERGVVSIKGVCANRYLAMKEDGRLLASKCVTEECFFFERLESNNYNTYRSRKYSSWYVALKRTGQYKLGSKTGPGQKAILFLPMSAKS
modifications: recombinant mouse protein
Virus titre (VSVΔ51 in MC38 cells): 8.20e6 ± 1.1e6 pfu/mL
Average of pixel intensity (JX594-GFP in 786-0 cells [11]): 24.90
Relative pixel intensity increase (JX594-GFP in 786-0 cells [11]): 4.37
Average of pixel intensity (JX594-GFP in 786-0 cells [11]; after 48 hours): 24.90
Relative pixel intensity increase (JX594-GFP in 786-0 cells [11]; after 48 hours): 4.37

Reference: patent US10604741B2, “Compositions and methods for enhancing virus replication” (TURNSTONE LIMITED PARTNERSHIP, priority 2013, dated 2020)
